The record followed here is US4753925A, “Antibacterial 1,7-diamino-1,4-dihydro-4-oxo-3-quinolinecarboxylic acids” (Bayer Aktiengesellschaft, priority 1984, dated 1988).

Values after ≈ are worked out from the molar mass of the structure shown.

A short description of data set [1]: Pharmacokinetics in mice following oral and parenteral administration. In kind it is in vivo. The settings on record: versus II. An excerpt: (§1) In most cases the values are identical, but for some strains they are about 2-4 times better.
Another data set relates to strains of Table 1. The experiment in a line: MIC comparison over the strains of Table 1. In kind it is cell-based. The following applies: versus II.
Text: as §1
(§2) Agar dilution test/Isosensitest medium

A short description of data set [2]: Serum levels in mice after oral administration. Type of data set: in vivo. The following applies: mouse, 5 mg/kg, read-out: Serum level; for concentration at 0.25 h: 15'; for concentration at 0.5 h: 30'.
Text: as §1
Serum levels in mice after oral administration

Another data set has as its system Providencia 12052. The experiment in a line: MIC, agar dilution test/Isosensitest medium. In kind it is cell-based. The following applies: agar dilution test, Isosensitest medium.
Text: as §1, §2
In general terms: In agar dilution, organisms are placed on agar that contains the substance at set levels.

A further data set relates to Klebsiella 6179. As to the kind of experiment: MIC, agar dilution test/Isosensitest medium. Type of data set: cell-based. The settings on record: agar dilution test, Isosensitest medium.
Text: as §1, §2

A further data set deals with E. coli A 261. The experiment in a line: MIC, agar dilution test/Isosensitest medium. In kind it is cell-based. The following applies: Escherichia coli, A261, agar dilution test, Isosensitest medium.
Text: as §1, §2

In a further data set the test system is E. coli 455/7. The experiment in a line: MIC, agar dilution test/Isosensitest medium. Type of data set: cell-based. The following applies: Escherichia coli, agar dilution test, Isosensitest medium.
Text: as §1, §2

Another data set concerns Pseudomonas W. The experiment in a line: MIC, agar dilution test/Isosensitest medium. The settings on record: agar dilution test, Isosensitest medium. Type of data set: cell-based.
Text: as §1, §2

The subject of the next data set is Klebsiella 57 USA. As to the kind of experiment: MIC, agar dilution test/Isosensitest medium. Type of data set: cell-based. The following applies: agar dilution test, Isosensitest medium.
Text: as §1, §2

The test system of another data set is Proteus mir. 8223. The experiment in a line: MIC, agar dilution test/Isosensitest medium. In kind it is cell-based. The following applies: agar dilution test, Isosensitest medium.
Text: as §1, §2

For another data set, the system named is Proteus mir. 8175. As to the kind of experiment: MIC, agar dilution test/Isosensitest medium. Type of data set: cell-based. The following applies: agar dilution test, Isosensitest medium.
Text: as §1, §2

The nature of data set [3]: Serum levels in mice following subcutaneous administration. In kind it is in vivo. The following applies: mouse, sc, 5 mg/kg, read-out: Serum level; for concentration at 0.25 h: 15'; for concentration at 0.5 h: 30'. On the procedure: as §1
Serum levels in mice following subcutaneous
administration of 5 mg/kg

One may read the MIC as the smallest concentration in the dilution series that meets the test's criterion for growth inhibition. For the compound `CNn1cc(C(=O)O)c(=O)c2cc(F)c(N3CCN(C)CC3)c(F)c21` [Example 3], the “Bioavailability compared with the comparison product” value in [1] (following oral and parenteral administration) was “better bioavailability”. For the same compound, in data set [1] (mice, oral and parenteral), the “Serum levels compared with the comparison product” value was “higher serum levels”. Moreover, the “MIC values compared with II: times better” value in the data set with strains of Table 1 (for some strains) is 2-4 times. The “MIC values compared with II” value in the data set with strains of Table 1 (in most cases) is “identical”. In addition, the concentration at 0.25 h in [2] is 900 ng/mL; in data set [3], 1200 ng/mL. In addition, the results for the concentration at 0.5 h in [2] and in data set [3] were 1200 ng/mL and 1400 ng/mL, respectively. In addition, the figures for the concentration at 1 h in [2] and in [3] were 600 ng/mL and 920 ng/mL, respectively. Besides, the concentration at 2 h turned out to be 250 ng/mL in data set [2] and 300 ng/mL in data set [3]. Moreover, the MIC against Providencia 12052 is 4 µg/mL (≈ 11.4 µM); in the data set with Klebsiella 6179 it was 0.125 µg/mL (≈ 0.355 µM); in the data set on E. coli A 261, 0.06 µg/mL (≈ 0.17 µM); in the data set with E. coli 455/7 it was 8 µg/mL (≈ 22.7 µM); against Pseudomonas W. it was 1 µg/mL (≈ 2.84 µM); with Klebsiella 57 USA, 0.125 µg/mL (≈ 0.355 µM). Moreover, the values for the MIC in the data set with Proteus mir. 8223 and in the data set on Proteus mir. 8175 were 4 µg/mL (≈ 11.4 µM) and 0.25 µg/mL (≈ 0.71 µM), respectively.

As for `CNn1cc(C(=O)O)c(=O)c2cc(F)c(N3CCN(C)CC3)cc21` [II, reference compound], the concentration at 0.25 h is 700 ng/mL in [2] and 840 ng/mL in data set [3]. Also, the concentration at 0.5 h in data set [2] stood at 580 ng/mL; in data set [3], 1300 ng/mL. In addition, the concentration at 1 h came out at 320 ng/mL in data set [2] and 450 ng/mL in [3]. Further, the concentration at 2 h in data set [2] and in [3] was 100 ng/mL each time. Further, the MIC turned out to be 16 µg/mL (≈ 47.9 µM) against Providencia 12052; 0.25 µg/mL (≈ 0.748 µM) against Klebsiella 6179; 0.06 µg/mL (≈ 0.179 µM) in the data set with E. coli A 261; 8 µg/mL (≈ 23.9 µM) against E. coli 455/7; 1 µg/mL (≈ 2.99 µM) in the data set with Pseudomonas W.; 0.25 µg/mL (≈ 0.748 µM) in the data set on Klebsiella 57 USA. Further, the MIC was found to be 4 µg/mL (≈ 12 µM) in the data set on Proteus mir. 8223 and 0.125 µg/mL (≈ 0.374 µM) with Proteus mir. 8175.
